How the values were obtained:
Adenosine receptor A1 = biological target: T1, Adenosine receptor A1 (Homo sapiens, UniProt P30542); experiment: biochemical
T1 sequence (P30542 whole entry): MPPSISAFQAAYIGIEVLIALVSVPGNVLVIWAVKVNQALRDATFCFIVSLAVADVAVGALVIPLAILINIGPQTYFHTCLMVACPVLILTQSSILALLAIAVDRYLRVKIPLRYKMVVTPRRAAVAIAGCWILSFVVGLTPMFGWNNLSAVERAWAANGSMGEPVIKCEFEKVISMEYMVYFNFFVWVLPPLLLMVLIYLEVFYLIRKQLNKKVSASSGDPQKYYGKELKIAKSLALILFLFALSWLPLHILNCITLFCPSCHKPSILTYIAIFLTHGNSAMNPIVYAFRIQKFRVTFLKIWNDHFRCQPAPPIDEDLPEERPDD

Adenosine receptor A2a [1] = biological target: T2, Adenosine receptor A2a (Homo sapiens, UniProt P29274); experiment: biochemical
[2] = biological target: T3, Adenosine receptor A3 (Homo sapiens) (UniProt P0DMS8); experiment: Displacement of [3H]AB-MECA from human adenosine A3 receptor expressed in HEK293 cell membrane at 1 uM; format: cell membranes
T3 sequence (whole entry): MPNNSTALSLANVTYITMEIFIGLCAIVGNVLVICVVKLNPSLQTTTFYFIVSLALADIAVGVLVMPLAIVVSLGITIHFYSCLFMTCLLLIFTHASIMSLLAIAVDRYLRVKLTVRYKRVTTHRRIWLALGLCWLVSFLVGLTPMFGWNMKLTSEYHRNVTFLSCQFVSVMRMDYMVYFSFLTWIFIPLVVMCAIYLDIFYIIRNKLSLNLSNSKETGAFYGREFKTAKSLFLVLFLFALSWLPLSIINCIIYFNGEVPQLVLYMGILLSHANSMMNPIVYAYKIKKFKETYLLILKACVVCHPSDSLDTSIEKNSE

[3] = biological target: T4, Adenosine receptor A2b (Homo sapiens) (UniProt P29275); experiment: Displacement of [3H]MRS1754 from human adenosine A2B receptor expressed in CHO cell membrane at 1 uM; format: cell membranes
T4 sequence (whole entry): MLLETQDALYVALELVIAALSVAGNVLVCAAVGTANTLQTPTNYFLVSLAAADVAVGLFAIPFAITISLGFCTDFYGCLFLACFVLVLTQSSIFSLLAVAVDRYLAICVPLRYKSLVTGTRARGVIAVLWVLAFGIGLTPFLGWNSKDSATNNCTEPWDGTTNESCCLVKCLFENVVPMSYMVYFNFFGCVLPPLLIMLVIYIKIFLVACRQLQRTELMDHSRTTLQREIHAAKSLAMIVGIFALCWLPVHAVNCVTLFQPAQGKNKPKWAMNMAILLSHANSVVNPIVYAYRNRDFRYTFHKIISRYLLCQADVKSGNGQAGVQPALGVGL

Adenosine receptor A2b = biological target: T5, Adenosine receptor A2b (Homo sapiens, UniProt P29275); experiment: Displacement of [3H]MRS1754 from human adenosine A2B receptor expressed in CHO cell membrane; format: cell membranes
T5 sequence (P29275 whole entry): T4 sequence (whole entry)

Adenosine receptor A2a [4] = biological target: T2, Adenosine receptor A2a; experiment: Displacement of [3H]ZM241385 from human adenosine A2A receptor expressed in HEK293 cell membrane at 1 uM; format: cell membranes
[5] = biological target: T6, Adenosine receptor A1 (Homo sapiens) (UniProt P30542); experiment: Displacement of [3H]DPCPX from human adenosine A1 receptor expressed in CHO cell membrane at 1 uM; format: cell membranes
T6 sequence (whole entry): T1 sequence (P30542 whole entry)

Adenosine receptor A2a [6] = biological target: T2, Adenosine receptor A2a
Description: Binding affinity to human adenosine A2A receptor

Adenosine receptor A2a [7] = biological target: T2, Adenosine receptor A2a; experiment: Displacement of [3H]ZM241385 from human adenosine A2A receptor expressed in HEK293 cell membrane
Adenosine receptor A3 = biological target: T7, Adenosine receptor A3 (Homo sapiens, UniProt P0DMS8); experiment: biochemical
T7 sequence (P0DMS8 whole entry): T3 sequence (whole entry)

T2 sequence (P29274 whole entry): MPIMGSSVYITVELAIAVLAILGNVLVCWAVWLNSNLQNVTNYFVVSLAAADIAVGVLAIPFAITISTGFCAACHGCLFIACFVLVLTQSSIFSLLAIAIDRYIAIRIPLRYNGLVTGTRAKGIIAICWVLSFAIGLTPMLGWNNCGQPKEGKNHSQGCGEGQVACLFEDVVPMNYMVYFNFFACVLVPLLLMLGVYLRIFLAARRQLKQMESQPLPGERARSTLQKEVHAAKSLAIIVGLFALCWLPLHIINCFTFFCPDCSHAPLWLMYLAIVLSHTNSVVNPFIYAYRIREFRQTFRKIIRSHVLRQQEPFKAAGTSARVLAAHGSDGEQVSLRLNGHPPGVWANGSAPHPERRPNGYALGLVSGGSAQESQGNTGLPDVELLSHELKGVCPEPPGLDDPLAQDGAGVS

Ki (Adenosine receptor A1)	Ki (Adenosine receptor A2a [1])	Activity [2]	Activity [3]	Structure (SMILES)	other results
0.012 µM	0.088 µM	32%	41%	N#Cc1c(-c2ccccc2)cc(-c2cccs2)nc1N	–
0.061 µM	–	18%	18%	N#Cc1c(-c2ccc(O)cc2)cc(-c2ccccc2)nc1N	Activity (Adenosine receptor A2a [4]): 17%
–	–	21%	15%	Cc1ccc(-c2cc(-c3ccco3)nc(N)c2C#N)cc1	Activity (Adenosine receptor A2a [4]): 45%; Activity [5]: 47%
–	–	7%	8%	CC(C)Oc1ccc(-c2cc(-c3ccco3)nc(N)c2C#N)cc1	Activity (Adenosine receptor A2a [4]): 6%; Activity [5]: 19%
–	–	–	–	COc1ccccc1-c1cc2nc(-c3ccco3)nn2c(N)n1	Ki (Adenosine receptor A2a [6]): 0.0043 µM
0.015 µM	0.13 µM	33%	37%	Cc1cccc(-c2cc(-c3ccccc3)nc(N)c2C#N)c1	–
–	1.7 µM	–	–	OC[C@H]1O[C@@H](n2cnc3c(NC4CCCC4)ncnc32)[C@H](O)[C@@H]1O [N6-CYCLOPENTYLADENOSINE]	–
0.064 µM	0.14 µM	18%	–	Cc1cccc(-c2cc(-c3ccco3)nc(N)c2C#N)c1	Ki (Adenosine receptor A2b): 0.62 µM
0.034 µM	0.058 µM	28%	7%	N#Cc1c(-c2cccc(OC(F)(F)F)c2)cc(-c2ccccc2)nc1N	–
–	–	–	–	CC(O)(C#Cc1cn2nc(-c3ccco3)nc2c(N)n1)Cc1ccncc1 (centres undefined)	Ki (Adenosine receptor A2a [6]): 0.0011 µM
0.043 µM	0.032 µM	31%	19%	N#Cc1c(-c2cccs2)cc(-c2cccs2)nc1N	–
–	–	4%	17%	N#Cc1c(-c2ccc(-c3ccccc3)cc2)cc(-c2ccco2)nc1N	Activity (Adenosine receptor A2a [4]): 0%; Activity [5]: 0%
–	–	–	–	Nc1nc(-c2ccco2)c2ncn(C(=O)NCc3ccccc3)c2n1	Ki (Adenosine receptor A2a [6]): 0.0011 µM
0.014 µM	0.13 µM	53%	26%	N#Cc1c(-c2ccccc2)cc(-c2ccccc2)nc1N	–
0.048 µM	0.14 µM	21%	33%	N#Cc1c(-c2ccc(Cl)cc2)cc(-c2ccco2)nc1N	–
0.007 µM	–	48%	0%	N#Cc1c(-c2ccc3c(c2)OCO3)cc(-c2ccccc2)nc1N	Activity (Adenosine receptor A2a [4]): 34%
0.068 µM	0.19 µM	14%	12%	N#Cc1c(-c2ccc(Cl)c(Cl)c2)cc(-c2ccco2)nc1N	–

Ki (Adenosine receptor A1)	Ki (Adenosine receptor A2a [1])	Activity [2]	Activity [3]	Structure (SMILES)	other results
–	–	–	–	Nc1nc(N2CCN3C[C@@H](COc4cccc(F)c4)CC[C@H]3C2)nc2nc(-c3ccco3)nn12	Ki (Adenosine receptor A2a [6]): 0.0002 µM
0.1 µM	0.015 µM	24%	–	Cc1ccc(-c2cc(-c3ccco3)nc(N)c2C#N)o1	Ki (Adenosine receptor A2b): 0.44 µM
–	–	–	–	Nc1nc2c(cnn2CCc2ccc(S(=O)(=O)N(CCO)CCO)cc2)c2nc(-c3ccco3)nn12	Ki (Adenosine receptor A2a [6]): 0.00012 µM
0.054 µM	0.041 µM	34%	–	N#Cc1c(-c2ccc(O)cc2)cc(-c2ccco2)nc1N	Ki (Adenosine receptor A2b): 0.37 µM
0.022 µM	0.054 µM	11%	44%	N#Cc1c(-c2cccs2)cc(-c2ccccc2)nc1N	–
–	–	21%	33%	COc1ccc(-c2cc(-c3ccco3)nc(N)c2C#N)cc1	–
0.066 µM	0.16 µM	32%	13%	COc1ccc(-c2cc(-c3ccccc3)nc(N)c2C#N)cc1OC	–
–	–	2%	4%	CN(C)c1ccc(-c2cc(-c3ccccc3)nc(N)c2C#N)cc1	Activity (Adenosine receptor A2a [4]): 1%; Activity [5]: 12%
–	–	–	–	Nc1nc(CN[C@H]2CCCN2Cc2ccnc(Cl)c2)nc2nc(-c3ccco3)nn12	Ki (Adenosine receptor A2a [6]): 0.004 µM
–	–	17%	2%	CN(C)c1ccc(-c2cc(-c3ccco3)nc(N)c2C#N)cc1	Activity (Adenosine receptor A2a [4]): 3.8%; Activity [5]: 11%
0.25 µM	0.092 µM	20%	31%	COc1ccc(-c2cc(-c3ccco3)nc(N)c2C#N)cc1OC	–
–	–	–	–	CC(C)(C)OC(=O)N1CCN(c2cccc(-c3cc4nc(-c5ccco5)nn4c(N)n3)c2)CC1	Ki (Adenosine receptor A2a [6]): 0.0005 µM
0.27 µM	–	13%	29%	N#Cc1c(-c2cccc(OC(F)(F)F)c2)cc(-c2ccco2)nc1N	Activity (Adenosine receptor A2a [7]): 260 nM
–	0.64 µM	0%	35%	N#Cc1c(-c2ccccc2)cc(-c2ccc[nH]2)nc1N	Activity [5]: 28%
–	–	–	–	Nc1nc(C(=O)NCCc2ccc(O)cc2)cn2nc(-c3ccco3)nc12	Ki (Adenosine receptor A2a [6]): 0.001 µM
–	–	–	–	CC(C)c1ccc2c(c1)-c1nc(N)nc(-c3ccc(Br)o3)c1C2	Ki (Adenosine receptor A2a [6]): 0.0008 µM

Structure (SMILES)	Ki (Adenosine receptor A1)	Ki (Adenosine receptor A2a [1])	Activity [2]	Activity [3]	other results
N#Cc1c(-c2ccccc2)cc(-c2ccco2)nc1N	0.028 µM	0.011 µM	28%	–	Ki (Adenosine receptor A2b): 0.17 µM
N#Cc1c(-c2ccco2)cc(-c2cccs2)nc1N	0.029 µM	0.012 µM	39%	–	Ki (Adenosine receptor A2b): 0.38 µM
N#Cc1c(-c2ccco2)cc(-c2ccccc2)nc1N	0.0058 µM	0.019 µM	29%	–	Ki (Adenosine receptor A2b): 0.22 µM
N#Cc1c(-c2ccco2)cc(-c2ccco2)nc1N	0.012 µM	0.001 µM	33%	–	Ki (Adenosine receptor A2b): 0.034 µM
N#Cc1c(-c2cccs2)cc(-c2ccco2)nc1N	0.028 µM	0.0014 µM	51%	–	Ki (Adenosine receptor A2b): 0.075 µM
N#Cc1c(-c2ccc3c(c2)OCO3)cc(-c2ccco2)nc1N	0.011 µM	0.026 µM	–	24%	Ki (Adenosine receptor A3): 0.39 µM

Reference: ChEMBL document CHEMBL1155896, “2-Amino-6-furan-2-yl-4-substituted nicotinonitriles as A2A adenosine receptor antagonists” (J Med Chem, 2008)
